How the values were obtained:
[1] = target: T1, angiotensin I converting enzyme (Cavia porcellus, UniProt H0UWL7); test: Inhibitory effect on angiotensin I-induced constriction in isolated guinea pig ileum (indirect inhibition of angiotensin I converting enzyme); format: cell-based; settings: angiotensin I 10^-8 M, 37° C.
T1 construct: isolated guinea pig ileum preparation; from tissue; host or cells: isolated guinea pig ileum
T1 sequence (H0UWL7 33-1302): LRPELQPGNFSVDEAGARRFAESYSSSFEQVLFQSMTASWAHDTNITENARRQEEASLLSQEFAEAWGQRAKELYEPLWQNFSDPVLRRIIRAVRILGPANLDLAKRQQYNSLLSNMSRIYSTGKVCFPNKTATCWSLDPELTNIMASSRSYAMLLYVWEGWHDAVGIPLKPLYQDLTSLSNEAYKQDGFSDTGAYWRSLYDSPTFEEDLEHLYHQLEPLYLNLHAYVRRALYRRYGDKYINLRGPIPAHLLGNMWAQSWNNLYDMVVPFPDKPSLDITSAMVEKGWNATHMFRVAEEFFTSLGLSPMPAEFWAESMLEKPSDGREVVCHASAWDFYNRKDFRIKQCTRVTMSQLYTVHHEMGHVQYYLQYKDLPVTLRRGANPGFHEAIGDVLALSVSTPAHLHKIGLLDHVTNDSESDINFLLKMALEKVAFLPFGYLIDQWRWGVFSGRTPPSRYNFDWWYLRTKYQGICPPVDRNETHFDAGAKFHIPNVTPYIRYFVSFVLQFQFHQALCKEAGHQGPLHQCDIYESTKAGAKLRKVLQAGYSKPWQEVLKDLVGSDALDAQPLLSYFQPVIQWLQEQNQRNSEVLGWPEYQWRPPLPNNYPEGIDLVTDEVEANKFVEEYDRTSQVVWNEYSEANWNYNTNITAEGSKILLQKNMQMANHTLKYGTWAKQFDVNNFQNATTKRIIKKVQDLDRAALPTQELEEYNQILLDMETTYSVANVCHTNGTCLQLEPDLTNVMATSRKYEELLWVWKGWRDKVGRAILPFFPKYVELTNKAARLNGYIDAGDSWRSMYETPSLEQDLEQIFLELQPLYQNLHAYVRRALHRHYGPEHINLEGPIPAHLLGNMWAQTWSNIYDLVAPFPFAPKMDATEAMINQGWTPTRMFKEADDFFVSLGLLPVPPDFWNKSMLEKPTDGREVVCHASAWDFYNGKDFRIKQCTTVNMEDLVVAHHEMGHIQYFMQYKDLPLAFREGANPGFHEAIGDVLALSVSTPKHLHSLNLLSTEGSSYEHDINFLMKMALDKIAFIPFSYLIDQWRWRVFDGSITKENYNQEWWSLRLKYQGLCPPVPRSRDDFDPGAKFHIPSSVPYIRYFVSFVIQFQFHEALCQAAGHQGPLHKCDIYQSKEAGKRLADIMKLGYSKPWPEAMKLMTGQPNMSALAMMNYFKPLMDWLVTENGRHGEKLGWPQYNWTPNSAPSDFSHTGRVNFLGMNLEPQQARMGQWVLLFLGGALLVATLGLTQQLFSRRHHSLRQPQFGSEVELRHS
Description: Experiment 1: Inhibitory effect on angiotensin I-induced constriction in isolated guinea pig ileum
According to the method of Goldberg et al (J. Pharmacol. Exp. Ther., vol. 204, No. 2, p. 271, 1977), the inhibitory effect on angiotensin I converting enzyme was indirectly examined as an antagonistic activity on angiotensin I-induced constriction in isolated guinea pig ileum preparation. Guinea pig ileum preparations, in the presence of 1 g load, were suspended in Magnus bath filled with Kreb's solution containing atropine and maintained at 37° C. by warming, and then bubbled with a mixed gas (95%O2 +5%CO2). Angiotensin I (10^-8 M)-induced constrictions were measured with a recorder through a force displacement transducer (Nippon Denki San-ei, 45169A). Inhibitory rates of the test compounds were indicated on a graph and the rate of 50% inhibition (IC50) was calculated.

[2] = test system: angiotensin I-induced pressor response; test: Effect on angiotensin I-induced pressor response in rats; format: in vivo, Wistar male rats; settings: 10 mg/kg, p.o.; for Inhibitory rate (%) of pressor response to angiotensin I at each hour: angiotensin I 300 ng/kg i.v., mean value±standard error
Description: Experiment 2: Effect on angiotensin I-induced pressor response in rats
Groups of 10 Wistar male rats weighing about 200 g were implanted with a catheter into the left carotid artery and femoral vein under ether anesthesia. More than 24 hours after operation, mean blood pressure was measured from the carotid artery with a pressure transducer (Nippon Denki San-ei, 142 type). Angiotensin I (300 ng/kg) was injected to the left femoral vein through catheter to induce pressor response. Then 10 mg/kg of the test compounds, suspended in 0.5% methylcellulose solution, were given orally. At every hour between 1 to 10 hours, and 24 hours after the administration, the pressor response was examined by the injection of angiotensin I. The inhibitory rate (%) against the pressor responses was determined and the results were summarized in Table 1. The values in the Table represent "mean value±standard error".

| IC50 [1] | SMILES | Inhibitory rate (%) of pressor response to angiotensin I at each hour ([2]; 1 hour) | Inhibitory rate (%) of pressor response to angiotensin I at each hour ([2]; 2 hours) | Inhibitory rate (%) of pressor response to angiotensin I at each hour ([2]; 3 hours) | Inhibitory rate (%) of pressor response to angiotensin I at each hour ([2]; 4 hours) | Inhibitory rate (%) of pressor response to angiotensin I at each hour ([2]; 5 hours) | Inhibitory rate (%) of pressor response to angiotensin I at each hour ([2]; 6 hours) | Inhibitory rate (%) of pressor response to angiotensin I at each hour ([2]; 7 hours) | Inhibitory rate (%) of pressor response to angiotensin I at each hour ([2]; 8 hours) | Inhibitory rate (%) of pressor response to angiotensin I at each hour ([2]; 9 hours) | Inhibitory rate (%) of pressor response to angiotensin I at each hour ([2]; 10 hours) | Inhibitory rate (%) of pressor response to angiotensin I at each hour ([2]; 24 hours) | inhibitory action against the angiotensin I-induced pressor response, strength and duration vs CV-5975 ([2]; rats, comparison in words) |
| --- | --- | --- | --- | --- | --- | --- | --- | --- | --- | --- | --- | --- | --- |
| 3.5 nM | O=C(O)CN1C(=O)[C@@H](N[C@@H](CCCCC2CCNCC2)C(=O)O)CSc2ccccc21 [CV-5975, 3(R)-[1(S)-carboxy-5-(4-piperidyl)pentyl]amino-4-oxo-2,3,4,5-tetrahydro-1,5-benzothiazepine-5-acetic acid, reference compound] | -95 ± 3% | -95 ± 3% | -89 ± 7% | -85 ± 7% | -82 ± 8% | -89 ± 6% | -86 ± 6% | -80 ± 7% | -84 ± 7% | -75 ± 9% | -45 ± 10% | – |
| 1.6 nM | O.O=C(O)CN1C(=O)C(N[C@@H](CSCCC2CCNCC2)C(=O)O)CCc2ccccc21 (stereo partly drawn) [Example 7, 3-[1(R)-carboxy-2-{2-(4-piperidyl)ethylthio}ethyl]amino-2-oxo-2,3,4,5-tetrahydro-1H-1-benzazepine-1-acetic acid monohydrate] | -96 ± 2% | -100 ± 0% | -94 ± 5% | -97 ± 3% | -100 ± 0% | -100 ± 0% | -100 ± 0% | -98 ± 2% | -100 ± 0% | -90 ± 6% | -77 ± 10% | exhibits stronger inhibitory action against the angiotensin I-induced pressor response and more long-lasting effect than C-5975 |
